Source: US12479849B2, “EGFR inhibitors for the treatment of cancer” (Hoffmann-La Roche Inc., priority 2019, dated 2025)
pIC50: −log10 of the molar value.

These compounds were tested against T1, EGFR TMLRCS (Homo sapiens, UniProt P00533, C797S/L858R/T790M) (assay: HTRF Phospho EGFR TMLRCS Assay (Cellular)). Details: BaF3-TMLRCS cell line, 4 hours incubation, Phospho-EGFR HTRF readout.
T1 construct: host or cells: BaF3-TMLRCS (Ba/F3 cells, kept under puromycin selection)
Assay type: cell-based
Protocol: HTRF Phospho EGFR TMLRCS Assay (Cellular)
BaF3-TMLRCS cell line were obtained from Crownbio (San Diego, CA, USA). Cells were maintained at 37° C., 5% CO2 in RPMI ATCC (Gibco 31870)+2 mM Glutamine+0.5 μg/ml Puromycin supplemented with 10% fetal bovine serum (FBS) (Gibco).
Cells are transferred as above to Greiner Bio-One, Nr. 784-08 micro-titerplate at 20000 cells/well in 12.5 μl of growth medium/well after the plates had been pre-filled with 12.5 nl of DMSO solutions of the to be tested compounds (in dose response) or DMSO only. After spinning the plates at 300×g for 30 seconds the cells were incubated for 4 hours at 37 C, 5% CO2, 95% humidity. The cells were lysed by adding to the compound mix 4 μl/well of the supplemented lysis buffer (Cis-bio, Phospho-EGFR HTRF kit, 64EG1PEH), followed by incubation for 30 min at room temperature with shaking (400 rpm). The plates were then frozen and stored overnight at −80 C. On the next day and after thawing the plates, 4 μl of a mixture of anti-Phospho-EGFR Cryptate and of anti-Phospho-EGFR-d2 antibody solutions prepared in the supplied detection buffer was added to each well. The lidded plates were then incubated for 4 h at room temperature before reading the fluorescence emission at 616 and 665 nm using an Envision reader (Perkin Elmer). Data was analyzed in similar fashion as above using the normalized ratio of the 665 to 616 signals multiplied by 10000.

T1 sequence (P00533 25-1210 T790M/C797S/L858R): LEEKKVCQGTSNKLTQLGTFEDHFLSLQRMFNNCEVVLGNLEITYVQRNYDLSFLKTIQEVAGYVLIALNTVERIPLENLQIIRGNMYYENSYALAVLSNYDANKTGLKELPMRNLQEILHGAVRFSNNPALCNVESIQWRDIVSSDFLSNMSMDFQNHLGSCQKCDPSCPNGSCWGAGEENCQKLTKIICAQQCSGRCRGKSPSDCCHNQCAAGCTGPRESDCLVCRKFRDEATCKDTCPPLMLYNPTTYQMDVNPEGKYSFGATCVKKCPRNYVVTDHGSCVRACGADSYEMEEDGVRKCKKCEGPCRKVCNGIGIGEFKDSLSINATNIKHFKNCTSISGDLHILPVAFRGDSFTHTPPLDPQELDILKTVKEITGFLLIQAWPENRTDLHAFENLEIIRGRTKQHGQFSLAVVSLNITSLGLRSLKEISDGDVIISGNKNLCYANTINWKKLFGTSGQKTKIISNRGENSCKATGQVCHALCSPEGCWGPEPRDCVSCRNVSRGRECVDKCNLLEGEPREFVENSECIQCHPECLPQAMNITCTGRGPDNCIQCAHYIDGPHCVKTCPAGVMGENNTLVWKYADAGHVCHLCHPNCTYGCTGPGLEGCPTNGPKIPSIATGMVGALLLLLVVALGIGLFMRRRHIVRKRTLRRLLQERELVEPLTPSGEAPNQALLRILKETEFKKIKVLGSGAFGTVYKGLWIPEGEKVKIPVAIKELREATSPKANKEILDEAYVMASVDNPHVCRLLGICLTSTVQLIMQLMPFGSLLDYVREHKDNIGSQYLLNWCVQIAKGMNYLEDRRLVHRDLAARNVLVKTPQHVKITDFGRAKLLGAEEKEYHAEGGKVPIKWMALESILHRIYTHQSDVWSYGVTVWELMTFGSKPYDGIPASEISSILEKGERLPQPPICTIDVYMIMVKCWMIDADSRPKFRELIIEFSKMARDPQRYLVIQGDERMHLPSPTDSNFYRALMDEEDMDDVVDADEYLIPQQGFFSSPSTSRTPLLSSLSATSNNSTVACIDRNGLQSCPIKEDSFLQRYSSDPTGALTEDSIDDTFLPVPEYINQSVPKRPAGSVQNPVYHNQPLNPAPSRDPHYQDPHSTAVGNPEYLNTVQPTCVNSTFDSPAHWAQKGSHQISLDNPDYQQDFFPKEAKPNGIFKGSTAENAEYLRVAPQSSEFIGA

SMILES	pIC50
CC(CCO)N1CCC(Oc2ccc(-c3cc(Cl)c4cn(C(C(=O)Nc5nccs5)c5ncn6c5C[C@@H](F)C6)nc4c3Cl)cc2)CC1 (mixture of isomers) [Example 86, 2-[4,7-Dichloro-6-[4-[[1-(3-hydroxy-1-methyl-propyl)-4-piperidyl]oxy]phenyl]indazol-2-yl]-2-[rac-(6R)-6-fluoro-6,7-dihydro-5H-pyrrolo[1,2-c]imidazol-1-yl]-N-thiazol-2-yl-acetamide]	8.22
O=C(Nc1nccs1)C(c1ncn2c1C[C@@H](F)C2)n1cc2c(Cl)cc(-c3ccc(C4CCN(C5CC(O)C5)CC4)cc3)c(Cl)c2n1 (mixture of isomers) [Example 87, rac-2-(4,7-Dichloro-6-(4-(1-(3-hydroxycyclobutyl)piperidin-4-yl)phenyl)-2H-indazol-2-yl)-2-((R)-6-fluoro-6,7-dihydro-5H-pyrrolo[1,2-c]imidazol-1-yl)-N-(thiazol-2-yl)acetamide]	8.05
O=C(Nc1nccs1)C(c1ncn2c1C[C@@H](F)C2)n1cc2c(Cl)cc(-c3ccc(CN4CCC5(CC4)CC(O)C5)cc3)c(Cl)c2n1 (mixture of isomers) [Example 91, rac-2-(4,7-Dichloro-6-(4-((2-hydroxy-7-azaspiro[3.5]nonan-7-yl)methyl)phenyl)-2H-indazol-2-yl)-2-((R)-6-fluoro-6,7-dihydro-5H-pyrrolo[1,2-c]imidazol-1-yl)-N-(thiazol-2-yl)acetamide]	8.10
O=C(Nc1nccs1)C(c1ncn2c1C[C@@H](F)C2)n1cc2c(Cl)cc(-c3ccc(OCCN4CCC5(CC4)CC(O)C5)cc3)c(Cl)c2n1 (mixture of isomers) [Example 92, rac-2-(4,7-Dichloro-6-(4-(2-(2-hydroxy-7-azaspiro[3.5]nonan-7-yl)ethoxy)phenyl)-2H-indazol-2-yl)-2-((R)-6-fluoro-6,7-dihydro-5H-pyrrolo[1,2-c]imidazol-1-yl)-N-(thiazol-2-yl)acetamide]	7.89
CN(Cc1ccc(-c2cc(Cl)c3cn(C(C(=O)Nc4nccs4)c4ncn5c4C[C@@H](F)C5)nc3c2Cl)cc1)C1CCC(O)CC1 (mixture of isomers) [Example 94, rac-2-(4,7-Dichloro-6-(4-(((4-hydroxycyclohexyl)(methyl)amino)methyl)phenyl)-2H-indazol-2-yl)-2-((R)-6-fluoro-6,7-dihydro-5H-pyrrolo[1,2-c]imidazol-1-yl)-N-(thiazol-2-yl)acetamide]	8.40
CN(Cc1ccc(-c2cc(Cl)c3cn(C(C(=O)Nc4nccs4)c4ncn5c4C[C@@H](F)C5)nc3c2Cl)cc1)C1CCCC(O)C1 (mixture of isomers) [Example 95, rac-2-(4,7-Dichloro-6-(4-(((3-hydroxycyclohexyl)(methyl)amino)methyl)phenyl)-2H-indazol-2-yl)-2-((R)-6-fluoro-6,7-dihydro-5H-pyrrolo[1,2-c]imidazol-1-yl)-N-(thiazolyl)acetamide]	8.22
CN1CCN(Cc2ccc(-c3cc(Cl)c4cn(C(C(=O)Nc5nccs5)c5ncn6c5C[C@@H](F)C6)nc4c3Cl)cc2)CC1 (mixture of isomers) [Example 96, rac-2-(4,7-Dichloro-6-(4-((4-methylpiperazin-1-yl)methyl)phenyl)-2H-indazol-2-yl)-2-((R)-6-fluoro-6,7-dihydro-5H-pyrrolo[1,2-c]imidazol-1-yl)-N-(thiazol-2-yl)acetamide]	8.22
CC1(O)CCN(Cc2ccc(-c3cc(Cl)c4cn(C(C(=O)Nc5nccs5)c5ncn6c5C[C@@H](F)C6)nc4c3Cl)cc2)CC1 (mixture of isomers) [Example 97, rac-2-(4,7-Dichloro-6-(4-((4-hydroxy-4-methylpiperidin-1-yl)methyl)phenyl)-2H-indazol-2-yl)-2-((R)-6-fluoro-6,7-dihydro-5H-pyrrolo[1,2-c]imidazol-1-yl)-N-(thiazol-2-yl)acetamide]	8.30
COC1CCN(Cc2ccc(-c3cc(Cl)c4cn(C(C(=O)Nc5nccs5)c5ncn6c5C[C@@H](F)C6)nc4c3Cl)cc2)C1 (mixture of isomers) [Example 98, rac-2-(4,7-Dichloro-6-(4-((3-methoxypyrrolidin-1-yl)methyl)phenyl)-2H-indazol-2-yl)-2-((R)-6-fluoro-6,7-dihydro-5H-pyrrolo[1,2-c]imidazol-1-yl)-N-(thiazol-2-yl)acetamide]	8.22
O=C(Nc1nccs1)C(c1ncn2c1C[C@@H](F)C2)n1cc2c(Cl)cc(-c3ccc(CN4C[C@H]5COC[C@H]5C4)cc3)c(Cl)c2n1 (mixture of isomers) [Example 99, rac-2-(4,7-Dichloro-6-(4-0(3aR,6aS)-tetrahydro-1H-furo[3,4-c]pyrrol-5(3H)-yl)methyl)phenyl)-2H-indazol-2-yl)-2-((R)-6-fluoro-6,7-dihydro-5H-pyrrolo[1,2-c]imidazol-1-yl)-N-(thiazol-2-yl)acetamide]	8.22

Other lines, results leading:

pIC50	SMILES
7.92	CC(O)C1CN(CCc2ccc(-c3cc(Cl)c4cn(C(C(=O)Nc5nccs5)c5ncn6c5C[C@@H](F)C6)nc4c3Cl)cc2)C1 (mixture of isomers) [Example 100, rac-2-(4,7-Dichloro-6-(4-(2-(3-(1-hydroxyethyl)azetidin-1-yl)ethyl)phenyl)-2H-indazol-2-yl)-2-((R)-6-fluoro-6,7-dihydro-5H-pyrrolo[1,2-c]imidazol-1-yl)-N-(thiazol-2-yl)acetamide]
8.00	COCCNCCc1ccc(-c2cc(Cl)c3cn(C(C(=O)Nc4nccs4)c4ncn5c4C[C@@H](F)C5)nc3c2Cl)cc1 (mixture of isomers) [Example 101, rac-2-(4,7-Dichloro-6-(4-(24(2-methoxyethyl)amino)ethyl)phenyl)-2H-indazol-2-yl)-2-((R)-6-fluoro-6,7-dihydro-5H-pyrrolo[1,2-c]imidazol-1-yl)-N-(thiazol-2-yl)acetamide]
8.10	O=C(Nc1nccs1)C(c1ncn2c1C[C@@H](F)C2)n1cc2c(Cl)cc(-c3ccc(N4CCOCC4)cc3)c(C(F)F)c2n1 (mixture of isomers) [Example 106, rac-2-(4-Chloro-7-(difluoromethyl)-6-(4-morpholinophenyl)-2H-indazol-2-yl)-2-((R)-6-fluoro-6,7-dihydro-5H-pyrrolo[1,2-c]imidazol-1-yl)-N-(thiazol-2-yl)acetamide]
8.05	CCN1CCC(c2ccc(-c3cc(Cl)c4cn(C(C(=O)Nc5nccs5)c5ncn6c5C[C@@H](F)C6)nc4c3)cc2)CC1 (mixture of isomers) [Example 117, rac-2-(4-Chloro-6-(4-(1-ethylpiperidin-4-yl)phenyl)-2H-indazol-2-yl)-2-((R)-6-fluoro-6,7-dihydro-5H-pyrrolo[1,2-c]imidazol-1-yl)-N-(thiazol-2-yl)acetamide]
6.72	Cc1cc(-c2ccc(C3CCN(CC(C)F)CC3)cc2)c(Cl)c2nn(C(C(=O)Nc3nccs3)c3ncn4c3C[C@@H](F)C4)cc12 (mixture of isomers) [Example 131, rac-2-(7-Chloro-6-(4-(1-(2-fluoropropyl)piperidin-4-yl)phenyl)-4-methyl-2H-indazol-2-yl)-2-((R)-6-fluoro-6,7-dihydro-5H-pyrrolo[1,2-c]imidazol-1-yl)-N-(thiazol-2-yl)acetamide]
8.15	Cc1cc(-c2ccc(OCCN3CCC(CO)CC3)cc2)c(Cl)c2nn(C(C(=O)Nc3nccs3)c3ncn4c3C[C@@H](F)C4)cc12 (mixture of isomers) [Example 132, rac-2-(7-Chloro-6-(4-(2-(4-(hydroxymethyl)piperidin-1-yl)ethoxy)phenyl)-4-methyl-2H-indazol-2-yl)-2-((R)-6-fluoro-6,7-dihydro-5H-pyrrolo[1,2-c]imidazol-1-yl)-N-(thiazol-2-yl)acetamide]
